Assays:
late watergrass = test: Test Example 1: herbicidal activity, application before weed generation under submerged conditions (Table 16, symbol A); assay type: in vivo, late watergrass (Echinochloa oryzicola); conditions: 320 g/ha applied herbicide
How it was run: (§1)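 Submerged Wagner pots (alluvial soil, 4 cm water) sown with weed seeds and planted with 2.5-leaf rice seedlings; emulsifiable concentrate diluted in water applied to water surface on sowing day. Held in greenhouse at 25-30 °C; injury scored 0-5 by herbicidal rate after three weeks.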

Japanese bulrush = test: Test Example 1: herbicidal activity, application before weed generation under submerged conditions (Table 16, symbol B); assay type: in vivo, Japanese bulrush (Schoenoplectus juncoides); conditions: 320 g/ha applied herbicide
How it was run: as §1

oval-leafed pondweed = test: Test Example 1: herbicidal activity, application before weed generation under submerged conditions (Table 16, symbol C); assay type: in vivo, oval-leafed pondweed (Monochoria vaginalis); conditions: 320 g/ha applied herbicide
How it was run: as §1

barnyard grass [1] = test: Test Example 3: herbicidal effect by foliage application, Wagner pot (Table 18, symbol H); assay type: in vivo, barnyard grass (Echinochloa crus-galli); conditions: amount of applied herbicide 320 g/ha
How it was run: (§2)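 Plants were sown in alluvial soil held under 0.1–0.5 cm standing water and grown 14 days in a greenhouse at 25–30 °C. An emulsifiable formulation, water-diluted to the set dose, was then sprayed onto the foliage, and effects were scored three weeks later using previously defined criteria.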

Chinese sprangletop = test: Test Example 3: herbicidal effect by foliage application, Wagner pot (Table 18, symbol D); assay type: in vivo, chinese sprangletop (Leptochloa chinensis); conditions: amount of applied herbicide 320 g/ha
How it was run: as §2

rice flat sedge = test: Test Example 3: herbicidal effect by foliage application, Wagner pot (Table 18, symbol E); assay type: in vivo, rice flat sedge (Cyperus iria); conditions: amount of applied herbicide 320 g/ha
How it was run: as §2

southern crabgrass [2] = test: Test Example 4: herbicidal effect by soil treatment (Table 19, symbol F); assay type: in vivo, southern crabgrass (Digitaria ciliaris); conditions: amount of applied herbicide 320 g/ha
How it was run: (§3)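 Herbicidal effect was rated 3 weeks after treatment, using the scoring criteria of an earlier test. The compound, formulated as an emulsion and diluted in water to a set herbicide amount, had been sprayed uniformly on soil over freshly sown seeds. Growth took place in a greenhouse at 25° C. to 30° C.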

green foxtail [3] = test: Test Example 4: herbicidal effect by soil treatment (Table 19, symbol G); assay type: in vivo, green foxtail (Setaria viridis); conditions: amount of applied herbicide 320 g/ha
How it was run: as §3

barnyard grass [4] = test: Test Example 4: herbicidal effect by soil treatment (Table 19, symbol H); assay type: in vivo, barnyard grass (Echinochloa crus-galli); conditions: amount of applied herbicide 320 g/ha
How it was run: as §3

wild oat [5] = test: Test Example 4: herbicidal effect by soil treatment (Table 19, symbol I); assay type: in vivo, wild oat (Avena fatua); conditions: amount of applied herbicide 320 g/ha
How it was run: as §3

blackgrass [6] = test: Test Example 4: herbicidal effect by soil treatment (Table 19, symbol J); assay type: in vivo, blackgrass (Alopecurus myosuroides); conditions: amount of applied herbicide 320 g/ha
How it was run: as §3

Italian ryegrass [7] = test: Test Example 4: herbicidal effect by soil treatment (Table 19, symbol K); assay type: in vivo, Italian ryegrass (Lolium multiflorum); conditions: amount of applied herbicide 320 g/ha
How it was run: as §3

windgrass [8] = test: Test Example 4: herbicidal effect by soil treatment (Table 19, symbol L); assay type: in vivo, windgrass (Apera spica-venti); conditions: amount of applied herbicide 320 g/ha
How it was run: as §3

velvetleaf [9] = test: Test Example 4: herbicidal effect by soil treatment (Table 19, symbol M); assay type: in vivo, velvetleaf (Abutilon theophrasti); conditions: amount of applied herbicide 320 g/ha
How it was run: as §3

redroot pigweed [10] = test: Test Example 4: herbicidal effect by soil treatment (Table 19, symbol N); assay type: in vivo, redroot pigweed (Amaranthus retroflexus); conditions: amount of applied herbicide 320 g/ha
How it was run: as §3

lambsquarters [11] = test: Test Example 4: herbicidal effect by soil treatment (Table 19, symbol O); assay type: in vivo, lambsquarters (Chenopodium album); conditions: amount of applied herbicide 320 g/ha
How it was run: as §3

chickweed [12] = test: Test Example 4: herbicidal effect by soil treatment (Table 19, symbol P); assay type: in vivo, common chickweed (Stellaria media); conditions: amount of applied herbicide 320 g/ha
How it was run: as §3

persian speedwell [13] = test: Test Example 4: herbicidal effect by soil treatment (Table 19, symbol R); assay type: in vivo, Persian speedwell (Veronica persica); conditions: amount of applied herbicide 320 g/ha
How it was run: as §3

southern crabgrass [14] = test: Test Example 5: herbicidal effect by foliage application, plastic box (Table 20, symbol F); assay type: in vivo, southern crabgrass (Digitaria ciliaris); conditions: foliage application, 320 g/ha, evaluated three weeks after application
How it was run: (§4)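 Foliar spray test: emulsion formulation diluted in water to a set application rate, sprayed onto 14-day-old plants raised in diluvial soil at 25° C to 30° C under glass. Both herbicidal effect and crop effect rated visually three weeks later.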

green foxtail [15] = test: Test Example 5: herbicidal effect by foliage application, plastic box (Table 20, symbol G); assay type: in vivo, green foxtail (Setaria viridis); conditions: foliage application, 320 g/ha, evaluated three weeks after application
How it was run: as §4

barnyard grass [16] = test: Test Example 5: herbicidal effect by foliage application, plastic box (Table 20, symbol H); assay type: in vivo, barnyard grass (Echinochloa crus-galli); conditions: foliage application, 320 g/ha, evaluated three weeks after application
How it was run: as §4

wild oat [17] = test: Test Example 5: herbicidal effect by foliage application, plastic box (Table 20, symbol I); assay type: in vivo, wild oat (Avena fatua); conditions: foliage application, 320 g/ha, evaluated three weeks after application
How it was run: as §4

blackgrass [18] = test: Test Example 5: herbicidal effect by foliage application, plastic box (Table 20, symbol J); assay type: in vivo, blackgrass (Alopecurus myosuroides); conditions: foliage application, 320 g/ha, evaluated three weeks after application
How it was run: as §4

Italian ryegrass [19] = test: Test Example 5: herbicidal effect by foliage application, plastic box (Table 20, symbol K); assay type: in vivo, Italian ryegrass (Lolium multiflorum); conditions: foliage application, 320 g/ha, evaluated three weeks after application
How it was run: as §4

windgrass [20] = test: Test Example 5: herbicidal effect by foliage application, plastic box (Table 20, symbol L); assay type: in vivo, windgrass (Apera spica-venti); conditions: foliage application, 320 g/ha, evaluated three weeks after application
How it was run: as §4

velvetleaf [21] = test: Test Example 5: herbicidal effect by foliage application, plastic box (Table 20, symbol M); assay type: in vivo, velvetleaf (Abutilon theophrasti); conditions: foliage application, 320 g/ha, evaluated three weeks after application
How it was run: as §4

redroot pigweed [22] = test: Test Example 5: herbicidal effect by foliage application, plastic box (Table 20, symbol N); assay type: in vivo, redroot pigweed (Amaranthus retroflexus); conditions: foliage application, 320 g/ha, evaluated three weeks after application
How it was run: as §4

lambsquarters [23] = test: Test Example 5: herbicidal effect by foliage application, plastic box (Table 20, symbol O); assay type: in vivo, lambsquarters (Chenopodium album); conditions: foliage application, 320 g/ha, evaluated three weeks after application
How it was run: as §4

chickweed [24] = test: Test Example 5: herbicidal effect by foliage application, plastic box (Table 20, symbol P); assay type: in vivo, common chickweed (Stellaria media); conditions: foliage application, 320 g/ha, evaluated three weeks after application
How it was run: as §4

persian speedwell [25] = test: Test Example 5: herbicidal effect by foliage application, plastic box (Table 20, symbol R); assay type: in vivo, Persian speedwell (Veronica persica); conditions: foliage application, 320 g/ha, evaluated three weeks after application
How it was run: as §4

Compound: COc1ccccc1-c1sc2ccc(C#C[Si](C)(C)C)cc2c1-c1c(O)c(C)nn(C)c1=O [2-188]
- Herbicidal effect on A: late watergrass (grade 0-5) (late watergrass): 4 (Herbicidal rate of 70% or more and less than 90%)
- Herbicidal effect on B: Japanese bulrush (grade 0-5) (Japanese bulrush): 0 (Herbicidal rate of 5% or less (almost no effect))
- Herbicidal effect on C: oval-leafed pondweed (grade 0-5) (oval-leafed pondweed): 0 (Herbicidal rate of 5% or less (almost no effect))
- herbicidal effect on H: barnyard grass (barnyard grass [1]): 4 (Herbicidal rate of 70% or more and less than 90%)
- herbicidal effect on D: Chinese sprangletop (Chinese sprangletop): 3 (Herbicidal rate of 40% or more and less than 70%)
- herbicidal effect on E: rice flat sedge (rice flat sedge): 0 (Herbicidal rate of 5% or less (almost no effect))
- F: southern crabgrass, herbicidal effect rating (southern crabgrass [2]): 0 (Herbicidal rate of 5% or less (almost no effect))
- G: green foxtail, herbicidal effect rating (green foxtail [3]): 0 (Herbicidal rate of 5% or less (almost no effect))
- H: barnyard grass, herbicidal effect rating (barnyard grass [4]): 0 (Herbicidal rate of 5% or less (almost no effect))
- I: wild oat, herbicidal effect rating (wild oat [5]): 0 (Herbicidal rate of 5% or less (almost no effect))
- J: blackgrass, herbicidal effect rating (blackgrass [6]): 0 (Herbicidal rate of 5% or less (almost no effect))
- K: Italian ryegrass, herbicidal effect rating (Italian ryegrass [7]): 0 (Herbicidal rate of 5% or less (almost no effect))
- L: windgrass, herbicidal effect rating (windgrass [8]): 0 (Herbicidal rate of 5% or less (almost no effect))
- M: velvetleaf, herbicidal effect rating (velvetleaf [9]): 0 (Herbicidal rate of 5% or less (almost no effect))
- N: redroot pigweed, herbicidal effect rating (redroot pigweed [10]): 5 (Herbicidal rate of 90% or more (almost completely withered))
- O: lambsquarters, herbicidal effect rating (lambsquarters [11]): 3 (Herbicidal rate of 40% or more and less than 70%)
- P: chickweed, herbicidal effect rating (chickweed [12]): 0 (Herbicidal rate of 5% or less (almost no effect))
- R: persian speedwell, herbicidal effect rating (persian speedwell [13]): 0 (Herbicidal rate of 5% or less (almost no effect))
- herbicidal effect on F: southern crabgrass (criteria 0-5) (southern crabgrass [14]): 3 (Herbicidal rate of 40% or more and less than 70%)
- herbicidal effect on G: green foxtail (criteria 0-5) (green foxtail [15]): 0 (Herbicidal rate of 5% or less (almost no effect))
- herbicidal effect on H: barnyard grass (criteria 0-5) (barnyard grass [16]): 1 (Herbicidal rate of 5% or more and less than 20%)
- herbicidal effect on I: wild oat (criteria 0-5) (wild oat [17]): 0 (Herbicidal rate of 5% or less (almost no effect))
- herbicidal effect on J: blackgrass (criteria 0-5) (blackgrass [18]): 4 (Herbicidal rate of 70% or more and less than 90%)
- herbicidal effect on K: Italian ryegrass (criteria 0-5) (Italian ryegrass [19]): 4 (Herbicidal rate of 70% or more and less than 90%)
- herbicidal effect on L: windgrass (criteria 0-5) (windgrass [20]): 4 (Herbicidal rate of 70% or more and less than 90%)
- herbicidal effect on M: velvetleaf (criteria 0-5) (velvetleaf [21]): 0 (Herbicidal rate of 5% or less (almost no effect))
- herbicidal effect on N: redroot pigweed (criteria 0-5) (redroot pigweed [22]): 3 (Herbicidal rate of 40% or more and less than 70%)
- herbicidal effect on O: lambsquarters (criteria 0-5) (lambsquarters [23]): 2 (Herbicidal rate of 20% or more and less than 40%)
- herbicidal effect on P: chickweed (criteria 0-5) (chickweed [24]): 5 (Herbicidal rate of 90% or more (almost completely withered))
- herbicidal effect on R: persian speedwell (criteria 0-5) (persian speedwell [25]): 1 (Herbicidal rate of 5% or more and less than 20%)
